Experimental data reported in PubChem BioAssay AID1053149 (Broad Institute, 2014).

Legend:
[1] = system: HepG2 secreted PCSK9, ELISA, 24 h; experiment: reduction of secreted PCSK9 protein, dose response, orthogonal assay for Trib1 inducer project, cell-based, HepG2, ELISA, plate reader, cherry-pick (AID 1053149)
[2] = as above; details: HepG2 secreted PCSK9, ELISA, 24 h; measured here: maximal PCSK9 decrease; stronger effect = higher value

SMILES	AC50 [1] [µM]	decrease in PCSK9 [2] [%]
CN1C(=O)c2cc(NC(=O)c3ccc(C(F)(F)F)cc3)ccc2OC[C@@H]2O[C@H](CC(=O)NC3Cc4ccccc4C3)CC[C@@H]21	0.6	79
CN1C(=O)c2cc(NC(=O)c3ccc(C(F)(F)F)cc3)ccc2OC[C@@H]2O[C@@H](CC(=O)NC3Cc4ccccc4C3)CC[C@@H]21	6.6	80
